This is an account of results in the supplement of paper PMC11208160.

The data set is described as follows: recombinant barcode read abundance after kanamycin selection (control-corrected) (log10(CPM+1)); higher = more efficient recombination; sequences stand for … in AGTGCAGAGAAAATCGGCCAGTTTTCTCTGCCTGCAGTCCGCATGCCGT…AGATTTATGCAGCGGACTGCCTTTCTCCCAAAGTGATAAACCGGACAGTATCATGGACCGGTTTTCCCGGTAATCCGTATTTGCAAGGTTGGTTTCACT; site = the 11-nt target. The method in brief: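 In a pooled screen in E. coli, targets were paired with target-binding loops of the IS621 bridge RNA. Each oligo carried a promoter, a target, a barcode and the first 104 bridge RNA bases driven by J23119, and was Gibson-cloned into a vector holding the remaining 73 bp and a T7-inducible recombinase before co-electroporation with a donor plasmid. Duplicate platings went onto chloramphenicol/ampicillin LB agar as the control or onto chloramphenicol/ampicillin/kanamycin with 0.1 mM IPTG. Recombination efficiency is the averaged, control-corrected count per million of barcodes at recombinant junctions, given as log10(CPM+1).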
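Further: IS621 recombinase and bridge RNA in Escherichia coli cells.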

Take “CGCTGGACTTGGGTTCTAACCTGTTGCCT (site CGCTTGACTAG)”: the “recombinant barcode read abundance (log10)” value worked out at 0.0799. On to “CGCTTGTCTTGGGTTCTAACCTGTTGCCT (site CGCTAGTCTAG)”, for which the “recombinant barcode read abundance (log10)” value was determined as 0.0576.

Consider “CGCTTGTCTTGGGTTCTAACCTGTTGCCT (site CGCTCGTCTAG)”, for which the “recombinant barcode read abundance (log10)” value was 0.00757. Consider “CGCTTGTCTTGGGTTCTAACCTGTTGCCT (site CGCTGGTCTAG)”, for which the “recombinant barcode read abundance (log10)” value came out at 0.117. On to “CGCTTGTCTTGGGTTCTAACCTGTTGCCT (site CGCTTGTCTAG)”, for which the “recombinant barcode read abundance (log10)” value worked out at 0.15. The figure for “CGGAAGTCTTGGGTTCTAACCTGTTGCCT (site CGGAAGACTAG)” is 0.0548; for “CGGAAGTCTTGGGTTCTAACCTGTTGCCT (site CGGAAGCCTAG)” it is 0.452; for “CGGAAGTCTTGGGTTCTAACCTGTTGCCT (site CGGAAGGCTAG)” it is 0.247. As for “CGGAAGTCTTGGGTTCTAACCTGTTGCCT (site CGGAAGTCTAG)”, the “recombinant barcode read abundance (log10)” value is 1.7. The figure for “CGGAATCCTTGGGTTCTAACCTGTTGCAT (site CGGAATCCTAA)” is 0.297.

In the case of “CGGAATCCTTGGGTTCTAACCTGTTGCAT (site CGGAATCCTAC)”, the “recombinant barcode read abundance (log10)” value came to 0.841.

In the case of “CGGAATCCTTGGGTTCTAACCTGTTGCAT (site CGGAATCCTAG)”, the “recombinant barcode read abundance (log10)” value turned out to be 0.29. As to “CGGAATCCTTGGGTTCTAACCTGTTGCAT (site CGGAATCCTAT)”, the “recombinant barcode read abundance (log10)” value stood at 1.15. “CGGAATCCTTGGGTTCTAACCTGTTGCTT (site CGGAATCCTAA)”: the “recombinant barcode read abundance (log10)” value amounted to 0.9. Regarding “CGGAATCCTTGGGTTCTAACCTGTTGCTT (site CGGAATCCTAC)”, the “recombinant barcode read abundance (log10)” value came out at 0.0576. The figure for “CGGAATCCTTGGGTTCTAACCTGTTGCTT (site CGGAATCCTAG)” is 0.316; for “CGGAATCCTTGGGTTCTAACCTGTTGCTT (site CGGAATCCTAT)” it is 0.707; for “CGGAGCCCTTGGGTTCTAACCTGTTGCAT (site CGCAGCCCTAT)” it is 0.0297. The figure for “CGGAGCCCTTGGGTTCTAACCTGTTGCAT (site CGGAGCCCTAT)” is 1.63; for “CGGAGCTCTTGGGTTCTAACCTGTTGCCT (site CGAAGCTCTAG)” it is 0.58; for “CGGAGCTCTTGGGTTCTAACCTGTTGCCT (site CGCAGCTCTAG)” it is 0.293. Turning to “CGGAGCTCTTGGGTTCTAACCTGTTGCCT (site CGGAGCTCTAG)”, the “recombinant barcode read abundance (log10)” value was found to be 1.94. In the case of “CGGAGCTCTTGGGTTCTAACCTGTTGCCT (site CGTAGCTCTAG)”, the “recombinant barcode read abundance (log10)” value was 0.0387.

Regarding “CGGATAGCTTGGGTTCTAACCTGTTGCCT (site CGGATAGCTAG)”, the “recombinant barcode read abundance (log10)” value is 0.885. In the case of “CGGATAGCTTGGGTTCTAACCTGTTGCCT (site CGGATCGCTAG)”, the “recombinant barcode read abundance (log10)” value was determined as 0.0282. Take “CGGATAGCTTGGGTTCTAACCTGTTGCCT (site CGGATGGCTAG)”: the “recombinant barcode read abundance (log10)” value is 0.153. The figure for “CGGATAGCTTGGGTTCTAACCTGTTGCCT (site CGGATTGCTAG)” is 0.553. In the case of “CGGATGGCTTGGGTTCTAACCTGTTGCCT (site CGGATAGCTAG)” it was 0.031; in that of “CGGATGGCTTGGGTTCTAACCTGTTGCCT (site CGGATCGCTAG)”, 0.0869. Take “CGGATGGCTTGGGTTCTAACCTGTTGCCT (site CGGATGGCTAG)”: the “recombinant barcode read abundance (log10)” value was found to be 0.64. For “CGGATGGCTTGGGTTCTAACCTGTTGCCT (site CGGATTGCTAG)”, the “recombinant barcode read abundance (log10)” value was 0.0444.

As for “CGGATTGCTTGGGTTCTAACCTGTTGCCT (site CGGATAGCTAG)”, the “recombinant barcode read abundance (log10)” value is 0.

On to “CGGATTGCTTGGGTTCTAACCTGTTGCCT (site CGGATCGCTAG)”, for which the “recombinant barcode read abundance (log10)” value worked out at 0.0723. For “CGGATTGCTTGGGTTCTAACCTGTTGCCT (site CGGATGGCTAG)”, the “recombinant barcode read abundance (log10)” value was 0.122. In the case of “CGGATTGCTTGGGTTCTAACCTGTTGCCT (site CGGATTGCTAG)”, the “recombinant barcode read abundance (log10)” value turned out to be 0.533.

Regarding “CGGCACACTTGGGTTCTAACCTGTTGCGG (site CGGAACACTCC)”, the “recombinant barcode read abundance (log10)” value was found to be 0.06. In the case of “CGGCACACTTGGGTTCTAACCTGTTGCGG (site CGGCACACTCC)” it was 1.86; in that of “CGGCACACTTGGGTTCTAACCTGTTGCGG (site CGGGACACTCC)”, 0.143. On to “CGGCACACTTGGGTTCTAACCTGTTGCGG (site CGGTACACTCC)”, for which the “recombinant barcode read abundance (log10)” value was 0.582.

As for “CGGCCACCTTGGGTTCTAACCTGTTGCTT (site AATGGGGCTCT)”, the “recombinant barcode read abundance (log10)” value is 0.0969. For the sequence “CGGCCACCTTGGGTTCTAACCTGTTGCTT (site CGGCCACCTAA)”, the “recombinant barcode read abundance (log10)” value was found to be 1.02. On to “CGGCCCACTTGGGTTCTAACCTGTTGCGG (site CGGCCCACTCC)”, for which the “recombinant barcode read abundance (log10)” value is 2.35. The figure for “CGGCCCACTTGGGTTCTAACCTGTTGCGG (site CGGGCCACTAC)” is 0.033; for “CGGCCGCCTTGGGTTCTAACCTGTTGCTT (site CGGCCGCCTAA)” it is 0.69; for “CGGCCGCCTTGGGTTCTAACCTGTTGCTT (site GGGTCGCCTAA)” it is 0.0563.

With “CGGCTCCCTTGGGTTCTAACCTGTTGCTT (site CGGCTCCCTAA)”, the “recombinant barcode read abundance (log10)” value was 1.24.

Take “CGGCTCCCTTGGGTTCTAACCTGTTGCTT (site GACACAACTTG)”: the “recombinant barcode read abundance (log10)” value turned out to be 0.147.

Consider “CGGGCCACTTGGGTTCTAACCTGTTGCCT (site CAGGCCACTAG)”, for which the “recombinant barcode read abundance (log10)” value was found to be 0.198. Regarding “CGGGCCACTTGGGTTCTAACCTGTTGCCT (site CCGGCCACTAG)”, the “recombinant barcode read abundance (log10)” value is 0.0207.

As for “CGGGCCACTTGGGTTCTAACCTGTTGCCT (site CGGGCCACTAG)”, the “recombinant barcode read abundance (log10)” value was found to be 0.442. In the case of “CGGGCCACTTGGGTTCTAACCTGTTGCCT (site CTGGCCACTAG)” it was 0.177. The figure for “CGGGCCTCTTGGGTTCTAACCTGTTGCTG (site CGGGCCTCTAA)” is 0.504; for “CGGGCCTCTTGGGTTCTAACCTGTTGCTG (site CGGGCCTCTCA)” it is 2.82. Consider “CGGGCCTCTTGGGTTCTAACCTGTTGCTG (site CGGGCCTCTGA)”, for which the “recombinant barcode read abundance (log10)” value came to 0.217. Take “CGGGCCTCTTGGGTTCTAACCTGTTGCTG (site CGGGCCTCTTA)”: the “recombinant barcode read abundance (log10)” value turned out to be 0.872. Consider “CGGGCGTCTTGGGTTCTAACCTGTTGCTA (site ATTCGAGCTAT)”, for which the “recombinant barcode read abundance (log10)” value stood at 0.116.

Turning to “CGGGCGTCTTGGGTTCTAACCTGTTGCTA (site CGGGCGTCTTA)”, the “recombinant barcode read abundance (log10)” value was found to be 1.17. In the case of “CGGGCTACTTGGGTTCTAACCTGTTGCGG (site CGGGCTACTCC)”, the “recombinant barcode read abundance (log10)” value is 3.05. For the sequence “CGGGCTACTTGGGTTCTAACCTGTTGCGG (site GGGACTACTCC)”, the “recombinant barcode read abundance (log10)” value is 0.0963.
